In patent US20240343704A1, “HALO-SUBSTITUTED AMINO PYRIDINE COMPOUNDS AS INHIBITORS OF THE HAEMATOPOIETIC PROGENITOR KINASE 1 (HPK1)” (priority 2021, published 2024):

Columns and labels:
Lck (h) = Lck (h) (Homo sapiens, UniProt P06239); assay: Lck Human  Kinase Enzymatic Radiometric Assay; type: biochemical; settings: for LcK IC50/HPK IC50 selectivity: ratio of Lck IC50 to HPK1 IC50; for IC50: read-out: Lck IC50 nM Range*
Method: Lck (h) is incubated with 50 mM Tris pH 7.5, 0.1 mM EGTA, 0.1 mM Na3VO4, 250 uM KVEKIGEGTYGVVYK (Cdc2 peptide), 10 mM MgAcetate and [gamma-33P]-ATP (specific activity and concentration as required). The reaction is initiated by the addition of the Mg/ATP mix. After incubation for 40 minutes at RT, the reaction is stopped by the addition of phosphoric acid to a concentration of 0.5%. 10 uL of the reaction is then spotted onto a P30 filtermat and washed four times for 4 minutes in 0.425% phosphoric acid and once in methanol prior to drying and scintillation counting. For more details on the kinase assay procedures see: Gao, Y. et. al.; Biochem J., 451 (2): 313-328, 2013.

[1] = target: T1, Recombinant (1-346) HPK1 (h) (Homo sapiens, UniProt Q92918); assay: HPK1 Human STE Kinase Enzymatic Radiometric Assay; type: biochemical; settings: read-out: HPK1 IC50 nM Range*
T1 construct: Recombinant (1-346) HPK1 (h) is incubated with 8 mM MOPS pH 7.0
T1 sequence (Q92918 1-346): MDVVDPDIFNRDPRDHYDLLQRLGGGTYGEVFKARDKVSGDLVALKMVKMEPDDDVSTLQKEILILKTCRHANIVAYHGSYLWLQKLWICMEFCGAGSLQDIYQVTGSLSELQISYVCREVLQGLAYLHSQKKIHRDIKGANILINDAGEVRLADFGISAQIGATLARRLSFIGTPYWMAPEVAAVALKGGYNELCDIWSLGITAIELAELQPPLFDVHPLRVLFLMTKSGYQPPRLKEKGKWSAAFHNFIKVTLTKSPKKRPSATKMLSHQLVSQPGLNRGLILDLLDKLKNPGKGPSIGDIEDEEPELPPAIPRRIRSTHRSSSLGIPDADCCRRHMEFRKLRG
Method: A stock solution of 10 mM of test compound is prepared in DMSO. The compound plate was prepared by 3-fold and 9-point serial dilutions. […] The reaction is initiated by The addition of the Mg/ATP mix. After incubation for 40 minutes at RT, the reaction is stopped by the addition of phosphoric acid to a concentration of 0.5%.

Sequence of Lck (h) (P06239 whole entry): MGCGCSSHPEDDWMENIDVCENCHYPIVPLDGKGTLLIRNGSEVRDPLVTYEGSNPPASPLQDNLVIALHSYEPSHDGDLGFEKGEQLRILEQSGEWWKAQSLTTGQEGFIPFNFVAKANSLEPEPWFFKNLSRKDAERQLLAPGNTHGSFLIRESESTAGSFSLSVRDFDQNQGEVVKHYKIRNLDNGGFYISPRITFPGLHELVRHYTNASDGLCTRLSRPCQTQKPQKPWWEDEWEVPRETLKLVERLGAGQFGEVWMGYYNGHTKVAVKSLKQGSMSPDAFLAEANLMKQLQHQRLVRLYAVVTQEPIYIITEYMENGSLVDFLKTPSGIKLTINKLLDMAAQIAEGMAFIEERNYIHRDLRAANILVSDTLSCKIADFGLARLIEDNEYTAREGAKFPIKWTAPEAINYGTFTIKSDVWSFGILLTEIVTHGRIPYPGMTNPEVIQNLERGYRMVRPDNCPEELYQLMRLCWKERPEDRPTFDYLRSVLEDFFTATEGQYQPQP

With `Nc1nc(F)c(-c2ccc(N3C[C@H]4COC[C@H]4C3)cc2)cc1-c1ccc2c(c1)CCNC2=O` the “LcK IC50/HPK IC50 selectivity” value (Lck (h)) was 323.
`CN1CCN(c2ccc(-c3cnc(N)c(-c4ccc5c(c4)CCNC5=O)c3F)cc2)CC1` [I-1, 6-(2-amino-4-fluoro-5-(4-(4-methylpiperazin-1-yl)phenyl)pyridin-3-yl)-3,4-dihydroisoquinolin-1(2H)-one] showed an IC50 [1] of 11 to 100 nM and an IC50 (Lck (h)) of 101 to 1000 nM.
`Nc1ncc(-c2ccc(N3CCOCC3)cc2)c(F)c1-c1ccc2c(c1)CCNC2=O` [I-2, 6-(2-amino-4-fluoro-5-(4-morpholinophenyl)pyridin-3-yl)-3,4-dihydroisoquinolin-1(2H)-one] was tested, and the IC50 [1] was 11 to 100 nM and the IC50 (Lck (h)) was greater than 1000 nM.
For `CC(C)S(=O)(=O)c1ccc(-c2cnc(N)c(-c3ccc4c(c3)CCNC4=O)c2F)cc1` [I-3, 6-(2-amino-4-fluoro-5-(4-(isopropylsulfonyl)phenyl)pyridin-3-yl)-3,4-dihydroisoquinolin-1(2H)-one], the IC50 [1] was 11 to 100 nM and the IC50 (Lck (h)) was greater than 1000 nM.
Molecule `CC(C)[C@@H]1CN(c2ccc(-c3cnc(N)c(-c4ccc5c(c4)CCNC5=O)c3F)cc2)CCO1` [I-4, (R)-6-(2-amino-4-fluoro-5-(4-(2-isopropylmorpholino)phenyl)pyridin-3-yl)-3,4-dihydroisoquinolin-1(2H)-one] has an IC50 [1] of 11 to 100 nM and an IC50 (Lck (h)) greater than 1000 nM.
`CC(C)[C@H]1CN(c2ccc(-c3cnc(N)c(-c4ccc5c(c4)CCNC5=O)c3F)cc2)CCO1` [I-5, (S)-6-(2-amino-4-fluoro-5-(4-(2-isopropylmorpholino)phenyl)pyridin-3-yl)-3,4-dihydroisoquinolin-1(2H)-one] gave an IC50 [1] of 11 to 100 nM and an IC50 (Lck (h)) greater than 1000 nM.
Molecule `CC(C)[C@@H]1CN(c2ccc(-c3cnc(N)c(-c4ccc5c(c4)CCNC5=O)c3F)c(F)c2)CCO1` [I-6, (R)-6-(2-amino-4-fluoro-5-(2-fluoro-4-(2-isopropylmorpholino)phenyl)pyridin-3-yl)-3,4-dihydroisoquinolin-1(2H)-one] has an IC50 [1] of 11 to 100 nM and an IC50 (Lck (h)) greater than 1000 nM.
For `CC(C)[C@H]1CN(c2ccc(-c3cnc(N)c(-c4ccc5c(c4)CCNC5=O)c3F)c(F)c2)CCO1` [I-7, (S)-6-(2-amino-4-fluoro-5-(2-fluoro-4-(2-isopropylmorpholino)phenyl)pyridin-3-yl)-3,4-dihydroisoquinolin-1(2H)-one], the IC50 [1] was 101 to 1000 nM and the IC50 (Lck (h)) was greater than 1000 nM.
Molecule `CN1CCN(c2ccc(-c3cc(-c4ccc5c(c4)CCNC5=O)c(N)nc3F)cc2)CC1` [I-8, 6-(2-amino-6-fluoro-5-(4-(4-methylpiperazin-1-yl)phenyl)pyridin-3-yl)-3,4-dihydroisoquinolin-1(2H)-one] has an IC50 [1] of 0.1 to 10 nM and an IC50 (Lck (h)) greater than 1000 nM.
Molecule `CC(C)[C@@H]1CN(c2ccc(-c3cc(-c4ccc5c(c4)CCNC5=O)c(N)nc3F)cc2)CCO1` [I-9, (R)-6-(2-amino-6-fluoro-5-(4-(2-isopropylmorpholino)phenyl)pyridin-3-yl)-3,4-dihydroisoquinolin-1(2H)-one] has an IC50 [1] of 0.1 to 10 nM and an IC50 (Lck (h)) greater than 1000 nM.
With `CC(C)[C@H]1CN(c2ccc(-c3cc(-c4ccc5c(c4)CCNC5=O)c(N)nc3F)cc2)CCO1` [I-10, (S)-6-(2-amino-6-fluoro-5-(4-(2-isopropylmorpholino)phenyl)pyridin-3-yl)-3,4-dihydroisoquinolin-1(2H)-one] the IC50 [1] was 11 to 100 nM and the IC50 (Lck (h)) was greater than 1000 nM.
With `CC(C)[C@@H]1CN(c2ccc(-c3cc(-c4ccc5c(c4)CCNC5=O)c(N)nc3F)c(F)c2)CCO1` [I-11, (R)-6-(2-amino-6-fluoro-5-(2-fluoro-4-(2-isopropylmorpholino)phenyl)pyridin-3-yl)-3,4-dihydroisoquinolin-1(2H)-one] the IC50 [1] was 0.1 to 10 nM and the IC50 (Lck (h)) was greater than 1000 nM.
Molecule `Nc1nc(F)c(-c2ccc(N3CCOCC3)cc2)cc1-c1ccc2c(c1)CCNC2=O` [I-16, 6-(2-amino-6-fluoro-5-(4-morpholinophenyl)pyridin-3-yl)-3,4-dihydroisoquinolin-1(2H)-one] has an IC50 (Lck (h)) greater than 1000 nM.
Work on `Nc1nc(F)c(-c2ccc(N3CCN(CCCC(F)F)CC3)cc2)cc1-c1cc2c(cc1F)C(=O)NCC2` [I-441, 6-(2-amino-5-(4-(4-(4,4-difluorobutyl)piperazin-1-yl)phenyl)-6-fluoropyridin-3-yl)-7-fluoro-3,4-dihydroisoquinolin-1(2H)-one] yielded an IC50 (Lck (h)) greater than 1000 nM.
For `Nc1nc(F)c(-c2ccc(C3CCNCC3)cc2)cc1-c1ccc2c(c1)CCNC2=O` [drawing 2673], the “LcK IC50/HPK IC50 selectivity” value (Lck (h)) was 1603.
With `Nc1nc(F)c(-c2cnn(C3CCOCC3)c2)cc1-c1ccc2c(c1)CCNC2=O` [drawing 2675] the “LcK IC50/HPK IC50 selectivity” value (Lck (h)) was 2000.
In the case of `Nc1nc(F)c(-c2ccc(N3CCCC3)cc2)cc1-c1ccc2c(c1)CCNC2=O` [drawing 2677], the “LcK IC50/HPK IC50 selectivity” value (Lck (h)) is reported as 769.
For `Nc1nc(F)c(-c2ccc(N3CCCCC3)cc2)cc1-c1ccc2c(c1)CCNC2=O` [drawing 2679], the “LcK IC50/HPK IC50 selectivity” value (Lck (h)) was 1250.
For `Nc1nc(F)c(-c2ccc(N3C[C@@H]4CCO[C@@H]4C3)cc2)cc1-c1ccc2c(c1)CCNC2=O` [drawing 2683], the “LcK IC50/HPK IC50 selectivity” value (Lck (h)) was 1429.
With `Nc1nc(F)c(-c2ccc(N3CCNCC3)c(C(F)(F)F)c2)cc1-c1ccc2c(c1)CCNC2=O` [drawing 2685] the “LcK IC50/HPK IC50 selectivity” value (Lck (h)) was 2580.
In the case of `Nc1nc(F)c(-c2ccc3c(c2)OCCCO3)cc1-c1ccc2c(c1)CCNC2=O` [drawing 2687], the “LcK IC50/HPK IC50 selectivity” value (Lck (h)) is reported as 1429.
`Nc1nc(F)c(-c2ccc(N3CCN4CCCC4C3)cc2)cc1-c1ccc2c(c1)CCNC2=O` (stereo not shown) [drawing 2689] was tested, and the “LcK IC50/HPK IC50 selectivity” value (Lck (h)) was 1480.
In the case of `Nc1nc(F)c(-c2ccc(N3CCCN4CCCC4C3)cc2)cc1-c1ccc2c(c1)CCNC2=O` (stereo not shown) [drawing 2691], the “LcK IC50/HPK IC50 selectivity” value (Lck (h)) is reported as 1073.
`Nc1nc(F)c(-c2ccc(C3CCNCC3)cc2)cc1-c1cc2c(cc1F)C(=O)NCC2` [drawing 2693] was tested, and the “LcK IC50/HPK IC50 selectivity” value (Lck (h)) was 704.
`Nc1ncc(-c2ccc(C3CCNCC3)cc2)cc1-c1ccc2c(c1)CCNC2=O` [reference compound] was tested, and the “LcK IC50/HPK IC50 selectivity” value (Lck (h)) was 45.
In the case of `Nc1ncc(-c2cnn(C3CCOCC3)c2)cc1-c1ccc2c(c1)CCNC2=O` [reference compound], the “LcK IC50/HPK IC50 selectivity” value (Lck (h)) is reported as 0.2.
With `Nc1ncc(-c2ccc(N3CCCC3)cc2)cc1-c1ccc2c(c1)CCNC2=O` [reference compound] the “LcK IC50/HPK IC50 selectivity” value (Lck (h)) was 69.
For `Nc1ncc(-c2ccc(N3CCCCC3)cc2)cc1-c1ccc2c(c1)CCNC2=O` [reference compound], the “LcK IC50/HPK IC50 selectivity” value (Lck (h)) was 79.
In the case of `Nc1ncc(-c2ccc(N3C[C@H]4COC[C@H]4C3)cc2)cc1-c1ccc2c(c1)CCNC2=O` [reference compound], the “LcK IC50/HPK IC50 selectivity” value (Lck (h)) is reported as 51.
`Nc1ncc(-c2ccc(N3C[C@@H]4CCO[C@@H]4C3)cc2)cc1-c1ccc2c(c1)CCNC2=O` [reference compound] was tested, and the “LcK IC50/HPK IC50 selectivity” value (Lck (h)) was 34.
`Nc1ncc(-c2ccc(N3CCNCC3)c(C(F)(F)F)c2)cc1-c1ccc2c(c1)CCNC2=O` [reference compound] was tested, and the “LcK IC50/HPK IC50 selectivity” value (Lck (h)) was 145.
`Nc1ncc(-c2ccc3c(c2)OCCCO3)cc1-c1ccc2c(c1)CCNC2=O` [reference compound] was tested, and the “LcK IC50/HPK IC50 selectivity” value (Lck (h)) was 485.
`Nc1ncc(-c2ccc(N3CCN4CCCC4C3)cc2)cc1-c1ccc2c(c1)CCNC2=O` (stereo not shown) [reference compound] was tested, and the “LcK IC50/HPK IC50 selectivity” value (Lck (h)) was 20.
In the case of `Nc1ncc(-c2ccc(N3CCCN4CCCC4C3)cc2)cc1-c1ccc2c(c1)CCNC2=O` (stereo not shown) [reference compound], the “LcK IC50/HPK IC50 selectivity” value (Lck (h)) is reported as 92.
For `Nc1ncc(-c2ccc(C3CCNCC3)cc2)cc1-c1cc2c(cc1F)C(=O)NCC2` [reference compound], the “LcK IC50/HPK IC50 selectivity” value (Lck (h)) was 27.
